Structures can show the parent of a compound that is named as a salt.
Legend:
KBM-5 cells = settings: KBM5 cells
Description: (§5) Two human CML, Ph+, p210 Bcr-Abl expressing cell lines were used, namely, KBM-5 and KBM-7. KBM-5 represents cells derived from a patient in the blastic phase of CML and is remarkable for the absence of normal c-ABL. KBM-7 has been identified to be a human near-haploid cell line.
(§6) The cells were cultured in Iscove's modified Dulbecco's medium supplemented with 10% fetal calf serum (Invitrogen Corp., Carlsbad, Calif.) at 37° C. in atmosphere of 5% CO2 in air.
(§7) Briefly, cells were seeded in triplicate in 96-well microtiter plates (Falcon, USA) at a concentration of 4×10^5 cells/ml. After exposure to the drug(s) for 72 h, 20 μl of MTS solution were added to each well, the plates were incubated for additional 4 h at 37° C., and absorbance at 490 nm was measured.

KBM-7 cells = settings: KBM7 cells
Description: as §5, §6, §7

[1] = tested on: KBM-5 chronic myeloid leukemia cells; assay: In vivo antitumor activity (survival) in mice bearing KBM-5 cells
Description: (§1) Three to five week-old ICR SCID female mice weighting 20-25 g were obtained from Taconic farms. They were acclimatized for a week prior to the experiment. The animals were maintained on a standard animals feed and drinking water ad libitum. Mice were housed in an air-conditioned room at the temperature of 22±1° C. and 50-70% humidity with a 12/12 h-light/dark cycle throughout the experiment.
(§2) Mice were irradiated (1×250 centigray; cGy) and injected i.p. with 2×10^7 or 2,4×10^7 KBM-5 or KBM-5R tumor cells, respectively. […] In primary experiments (with KBM-5 cells) or secondary experiments (with KBM-5R cells), tumor-bearing animals were randomised (8-10 per group and treated by Troxatyl™ i.p. at 5, 10, 20, or 25 mg/kg once a day for 5 consecutive days (days 20-24). Control (untreated) mice received saline. In third experiments (with KBM-5 cells), tumor bearing animals (6 per group) were treated by one of the following schemes:
(§3) Animals in complete remission, free of detectable tumor (negative for human DQα-gen) were considered cured.
(§4) LTS were electively sacrificed on Day 95 in single agent experiments or on Day 100 in combination treatment experiment.

[2] = tested on: KBM-5R chronic myeloid leukemia cells (STI-571 resistant); assay: In vivo antitumor activity (survival) in mice bearing KBM-5R cells; settings: for ILS % / Median survival time / Rang survival time / T/C %: qd × 5; for LTS (long term survivors): qd × 5, sacrificed Day 95
Description: as §1, §2, §3, §4

[3] = KBM-5, third (combination) experiment, 50 mg/kg ip, bid × 10
[4] = KBM-5, primary experiment, 5 mg/kg ip, qd × 5
[5] = KBM-5, primary experiment, 10 mg/kg ip, qd × 5
[6] = KBM-5, primary experiment, 20 mg/kg ip, qd × 5
[7] = KBM-5, primary experiment, 25 mg/kg ip, qd × 5
[8] = KBM-5, third (combination) experiment, 10 mg/kg ip, qd × 5
[9] = KBM-5, third (combination) experiment, 25 mg/kg ip, qd × 5

Description for KBM5-STI^R1.0 cells: (§8) In vitro growth inhibition effect of adaphostin on leukemic cells was determined by measuring MTS (CellTiter 96®Aqueous One Solution Reagent, Promega Corporation, WI) dye absorbance by living cells. Briefly, cells were seeded in triplicate in 96-well microtiter plates (Falcon, USA) at a concentration of 4×10^5 cells/ml. After exposure to the drug(s) for 72 h, 20 μl of MTS solution were added to each well, the plates were incubated for additional 4 h at 37° C., and absorbance at 490 nm was measured.
Description for KBM7-STI^R1.0 cells: as §8

`Cc1ccc(NC(=O)c2ccc(CN3CCN(C)CC3)cc2)cc1Nc1nccc(-c2cccnc2)n1` [STI-571, imatinib mesylate] was tested, and the “STI-571 concentration up to which cells still proliferated” value (KBM5-STI^R1.0 cells) was “up to 10 μM”, the “response to STI-571 exposure” value (KBM-5 cells) was “G0/G1 cell cycle arrest” and the “response to STI-571 exposure” value (KBM-7 cells) was “apoptosis”. The “STI-571 concentration at which proliferation was almost completely abolished” value (KBM7-STI^R1.0 cells) was 7.5 µM, the ILS % [1, 3] was 8.95% and the Median survival time [1, 3] was 31.16 days. It also gave a Rang survival time [1, 3] of 26 to 40 days.
`Nc1ccn([C@@H]2CO[C@H](CO)O2)c(=O)n1` [Troxatyl ™, (−)-β-L-Dioxolane-Cytidine] was tested, and the ILS % ([2]; 5 mg/kg ip) was 13.93%, the Median survival time ([2]; 5 mg/kg ip) was 37.142 days and the Rang survival time ([2]; 5 mg/kg ip) was 36 to 50 days. For the same molecule, the T/C % ([2]; 5 mg/kg ip) was 113.93%, the “LTS (long term survivors)” value ([2]; 5 mg/kg ip) was 2 and the ILS % ([2]; 10 mg/kg ip) was 50.64%. For the same molecule, the Median survival time ([2]; 10 mg/kg ip) was 49.11 days, the Rang survival time ([2]; 10 mg/kg ip) was 36 to 69 days and the T/C % ([2]; 10 mg/kg ip) was 150.64%. It also gave an ILS % ([2]; 20 mg/kg ip) of 56.84%, a Median survival time ([2]; 20 mg/kg ip) of 51.13 days and a Rang survival time ([2]; 20 mg/kg ip) of 37 to 69 days. It also gave a T/C % ([2]; 20 mg/kg ip) of 156.84%, an ILS % ([2]; 25 mg/kg ip) of 54.66% and a Median survival time ([2]; 25 mg/kg ip) of 50.42 days. The Rang survival time ([2]; 25 mg/kg ip) was 35 to 69 days, the T/C % ([2]; 25 mg/kg ip) was 154.66% and the “LTS (long term survivors)” value ([2]; 25 mg/kg ip) was 1. It also gave an ILS % [1, 4] of 57.09%, a Median survival time [1, 4] of 54 days and a Rang survival time [1, 4] of 46 to 66 days. The T/C % [1, 4] was 157.09%, the “LTS (long term survivors)” value ([1]; KBM-5, primary experiment, 5 mg/kg ip, qd × 5, sacrificed Day 95) was 1 and the ILS % [1, 5] was 45.45%. For the same molecule, the Median survival time [1, 5] was 50 days, the Rang survival time [1, 5] was 44 to 66 days and the T/C % [1, 5] was 145.45%. It also gave an ILS % [1, 6] of 33.82%, a Median survival time [1, 6] of 46 days and a Rang survival time [1, 6] of 36 to 58 days. The T/C % [1, 6] was 133.82%, the ILS % [1, 7] was 68.73% and the Median survival time [1, 7] was 58 days. For the same molecule, the Rang survival time [1, 7] was 35 to 74 days, the T/C % [1, 7] was 168.73% and the ILS % [1, 8] was 50.90%. The Median survival time [1, 8] was 43.16 days, the Rang survival time [1, 8] was 38 to 50 days and the T/C % [1, 8] was 150.9%. It also gave an ILS % [1, 9] of 71.33%, a Median survival time [1, 9] of 49 days and a Rang survival time [1, 9] of 40 to 56 days. It also gave a T/C % [1, 9] of 171.33%.
